According to patent publication US8193430B2, “Methods for separating carbon nanotubes” (The University of Connecticut, priority 2008, dated 2012):
In brackets after ≈: the same amount, converted by molar mass. Where two headings read alike, the source gives them in different places.

Assays:
[1] = Solubility of riboflavin in neutral aqueous media (SWNT dispersion); type: physicochemical
Protocol: A representative procedure for dispersing SWNTs with flavin mononucleotide (FMN), FAD and riboflavin involves a 4 hours cup horn sonication of SWNTs in H2O or D2O. This is followed by 2 hours of centrifugation at 15 kg, where the upper 70 to 80% of the supernatant was decanted for further investigation. As noted above, the FIG. 1 illustrates the chemical structure of riboflavin, FMN, and FAD used for such aqueous dispersion of SWNTs. While the basic flavin moiety is hydrophobic, these flavin derivatives have water-miscible tail groups. Such amphiphilic structures together with the aforementioned strong π-π interactions with both metallic and semiconducting SWNTs, can explain the effective nanotube dispersion in aqueous media.
FIG. 6 illustrates the UV-Vis-NIR spectra of HiPco dispersions with FMN, FAD, and riboflavin. The first (E11^S) and second (E22^S) optical transitions of semiconducting SWNTs can be witnessed in […] range, respectively. Those E11^S and E22^S features are clearly apparent for the FMN and FAD spectra, which are in good accordance with that of SDBS-dispersed HiPco SWNTs. […] Upon sonication of riboflavin-SWNT in basic media (pH 11), the resulting dispersions recover the aforementioned E11^S and E22^S features (data not shown), which indicates the successful dispersion of SWNTs. […]

[2] = Solubility of lumiflavin and FC12 in various solvents; type: physicochemical; details: organic solvent or mixture
Source text: The facile nanotube individualization and high QYs afforded by FC12 in certain solvents, begs the question why these solvents behave so differently. The answer to this question is believed to originate from the relative solubility differences of the two FC12 sub-moieties (i.e., isoalloxazine ring and dodecyl side chain). For this, we procured 10-methyl isoalloxazine (lumiflavin), the closest analogue to the isoalloxazine ring, and investigated its solubility characteristics versus that of FC12. Table 1 tabulates the solubilities of lumiflavin and FC12 as a function of dielectric constant (∈) of various solvents. […] As solvent polarity increases (i.e., ethylacetate, THF and acetone), their solubilities increase accordingly. […] Such behavior is believed to originate from the moderate-strong H-bonding ability of pyridine and DMF, capable of dissociating the H-bonded FC12 ribbon responsible for nanotube-dispersion. […] Two distinct regimes can be discerned, with high and low QYs for low and medium polarity solvents, respectively. For both regimes, the increase in FC12 solubility was followed by a decrease in QY. Since H-bonding is responsible for both helix stability and FC12/lumiflavine dissolution, increasing solvent polarity is expected to increase the helix dissociation constant and render FC12-wrapped nanotubes more prone to bundling and less capable to desorb 1,4-endoperoxide defects. On the basis of the observed aggregation tendencies, the low QYs in regime B appear to be dominated by nanotube bundling. In low-polarity solvents, the tight helical wrapping prevents nanotube bundling, which results in higher QY. Moreover, the proportionality of the helix dissociation constant to the FC12 solubility, explains the linear dependence of 1,4-endoperoxide defect removal along the one dimensional SWNT structure.

Cc1cc2nc3c(=O)[nH]c(=O)nc-3n(C[C@H](O)[C@H](O)[C@H](O)CO)c2cc1C [riboflavin]
solubility in neutral aqueous media [1]: insolubility

CCCCCCCCCCCCn1c2nc(=O)[nH]c(=O)c-2nc2cc(C)c(C)cc21 [FC12, 10-dodecyl-7,8-dimethyl-10H-benzo[g]pteridine-2,4-dione]
solubility ([2]; DMF (N,N-dimethyl formamide), in DMF, read-out: FC12 solubility): 22900 µg/mL (≈ 55700 µM) | solubility ([2]; THF (tetrahydrofuran), in THF, read-out: FC12 solubility): 11000 µg/mL (≈ 26900 µM) | solubility ([2]; in acetone, read-out: FC12 solubility): 1810 µg/mL (≈ 4410 µM) | solubility ([2]; in benzene, read-out: FC12 solubility): 310 µg/mL (≈ 755 µM) | solubility ([2]; in ethylacetate, read-out: FC12 solubility): 510 µg/mL (≈ 1240 µM) | solubility ([2]; in o-xylene, read-out: FC12 solubility): 250 µg/mL (≈ 609 µM) | solubility ([2]; in pyridine, read-out: FC12 solubility): 70400 µg/mL (≈ 171000 µM) | solubility ([2]; in toluene, read-out: FC12 solubility): 230 µg/mL (≈ 560 µM)

Cc1cc2nc3c(=O)[nH]c(=O)nc-3n(C)c2cc1C [Lumiflavin]
solubility ([2]; DMF (N,N-dimethyl formamide), in DMF, read-out: Lumiflavin solubility): 317 µg/mL (≈ 1240 µM) | solubility ([2]; THF (tetrahydrofuran), in THF, read-out: Lumiflavin solubility): 46.2 µg/mL (≈ 180 µM) | solubility ([2]; in acetone, read-out: Lumiflavin solubility): 53.9 µg/mL (≈ 210 µM) | solubility ([2]; in benzene, read-out: Lumiflavin solubility): 4.4 µg/mL (≈ 17.2 µM) | solubility ([2]; in ethylacetate, read-out: Lumiflavin solubility): 14.1 µg/mL (≈ 55 µM) | solubility ([2]; in o-xylene, read-out: Lumiflavin solubility): 5.9 µg/mL (≈ 23 µM) | solubility ([2]; in pyridine, read-out: Lumiflavin solubility): 529 µg/mL (≈ 2060 µM) | solubility ([2]; in toluene, read-out: Lumiflavin solubility): 4.3 µg/mL (≈ 16.8 µM)
